# Earlier results in PubChem BioAssay AID1259410 (Chemical Carcinogenesis Research Information System (CCRIS), 2018).
# Tested on: rodent tumor promotion studies, tumor incidence
# Assay: CCRIS tumor promotion studies
# [1] = Carcinogen: 7,12-DIMETHYLBENZ(A)ANTHRACENE, Doses [Carcinogen]: TOP, Route [Carcinogen]: DERMAL, Route [Promoter]: DERMAL, Species: MOUSE, Strain/Sex: FEMALE
smiles,measurement,setting,value
COC(=O)[C@H]1[C@@H](OC(=O)c2ccccc2)C[C@@H]2CC[C@H]1N2C,outcome,"Carcinogen: MURINE SARCOMA VIRUS, Doses [Promoter]: 0, 0.5 MG/KG/D FOR 3 D BEGINNING ON DAY OF VIRUS INJECTION (STUDY DURATION: 20 D), Route [Carcinogen]: INTRAMUSCULAR, Route [Promoter]: SUBCUTANEOUS, Species: MOUSE, Strain/Sex: BALB/FEMALE",injection site: tumor
CC(O)CN(C)N=O (stereo not drawn),outcome,"Carcinogen: 1-NITRO-1,3-DIMETHYLUREA, 13256-32-1, Doses [Carcinogen]: 10 MG/ML IN ETHYL ACETATE/CORN OIL (1:1) 1/WK FOR 2 WK, Doses [Promoter]: 0, 20 MG/L IN DRINKING WATER 5D/WK FOR 40 WK BEGINNING 1/WK POST CARCINOGEN TREATMENT (STUDY DURATION: 43 WK), Route [Carcinogen]: GAVAGE, Route [Promoter]: ORAL, Species: RAT, Strain/Sex: F344/MALE",kidney: nephroblastoma
same,outcome,"Carcinogen: 1-NITROSO-1,3-DIETHYLUREA, 49540-32-1, Doses [Carcinogen]: 12 MG/ML IN ETHYL ACETATE/CORN OIL (1:1) 1/WK FOR 2 WK, Doses [Promoter]: 0, 20 MG/L IN DRINKING WATER 5 D/WK FOR 40 WK BEGINNING 1/WK POST CARCINOGEN TREATMENT (STUDY DURATION: 43 WK), Route [Carcinogen]: GAVAGE, Route [Promoter]: ORAL, Species: RAT, Strain/Sex: F344/MALE",thyroid: adenocarcinoma; lung: adenocarcinoma; kidney: nephroblastoma
same,outcome,"Carcinogen: NITROSOBIS(2-OXOPROPYL)AMINE, 60599-38-4, Doses [Carcinogen]: 12 MG/ML IN ETHYL ACETATE/CORN OIL (1:1) 2/WK FOR 2 WK, Doses [Promoter]: 0, 20 MG/L IN DRINKING WATER 5D/WK FOR 40 WK BEGINNING 1/WK POST CARCINOGEN TREATMENT (STUDY DURATION: 43 WK), Route [Carcinogen]: GAVAGE, Route [Promoter]: ORAL, Species: RAT, Strain/Sex: F344/MALE",kidney: renal cell carcinoma
Oc1ccc(Br)cc1,outcome,[1],integumentary system (skin)
CCCCCCCCCCCCCC1(CC(=O)OC2C(C)C3(O)C(C=C(CO)CC4(O)C(=O)C(C)=CC43)C3C(C)(C)C23OC(C)=O)OCC(C)(C)N1[O] (stereo not drawn),outcome,"Carcinogen: 7,12-DIMETHYLBENZ[A]ANTHRACENE, 57-97-6, Doses [Carcinogen]: 100 NMOL ONCE, Doses [Promoter]: 0, 5 NMOL 2/WK FOR 36 WK BEGINNING 1 WK POST CARCINOGEN DOSE (STUDY DURATION: 25 WK), Route [Carcinogen]: DERMAL, Route [Promoter]: DERMAL, Species: MOUSE, Strain/Sex: NMRI/FEMALE",skin: tumor
Cn1cc[nH]c1=S,outcome,"Carcinogen: Acrylonitrile, 79-06-1, Doses [Carcinogen]: 2-3 mg/kg in drinking water, study duration 2 mo, Doses [Promoter]: 100 mg/l in drinking water, study duration 2 mo, Route [Carcinogen]: Oral, Route [Promoter]: Oral, Species: Mouse, Strain/Sex: CD1/Female (20,?)/(30/ ?)",thyroid; no tumors
Oc1ccc(Cl)cc1Cl,outcome,[1],integumentary system (skin)
OCl,outcome,"Carcinogen: 4-NITROQUINOLINE-1-OXIDE, Doses [Carcinogen]: TOP, Route [Carcinogen]: DERMAL, Route [Promoter]: DERMAL, Species: MOUSE, Strain/Sex: FEMALE",integumentary system (skin)
C=C/C=C\C1C2/C=C/CC(=O)O[C@@]34C[C@@H](C)[C@]5(O)C6C=C(C)C(=O)[C@@]6(O)CC(CO)=C[C@H]5[C@@H]3[C@@]4(C)COC(=O)C2C2C(/C=C/C=C/C=C/CCC)C12 (stereo partly drawn),outcome,"Carcinogen: 7,12-DIMETHYLBENZ[A]ANTHRACENE, 57-97-6, Doses [Carcinogen]: 100 UG IN O.1 ML ACETONE, Doses [Promoter]: 0, 2 UG IN 0.1 ML OF METHANOL 2/WK FOR 16 WK BEGINNING 1 WK POST CARCINOGEN DOSE THEN 5 UG 2/WK FOR 13 WK (STUDY DURATIO, Route [Carcinogen]: DERMAL, Route [Promoter]: DERMAL, Species: MOUSE, Strain/Sex: CD-1/FEMALE",skin: tumor
CC(C)CCC[C@@H](C)[C@H]1CC[C@H]2[C@@H]3CC=C4C[C@@H](O)CC[C@]4(C)[C@H]3CC[C@]12C,outcome,"Carcinogen: N-NITROSOBIS(2-OXOPROPYL)AMINE, 60599-38-4, Doses [Carcinogen]: 70 MG/KG ONCE, Doses [Promoter]: 0, 0.5% IN DIET BEGINNING 2 WK POST CARCINOGEN DOSE AND CONTINUING FOR 16 WK (STUDY DURATION: 18 WK), Route [Carcinogen]: SUBCUTANEOUS, Route [Promoter]: ORAL, Species: HAMSTER, Strain/Sex: SYRIAN/FEMALE",pancreas: adenocarcinoma
C#C[C@]1(O)CC[C@H]2[C@@H]3CCc4cc(O)ccc4[C@H]3CC[C@@]21C,outcome,"Carcinogen: 3,2'-DIMETHYL-4-AMINOBIPHENYL, 13394-86-0, Doses [Carcinogen]: 100 MG/KG 1/WK FOR 20 WK, Doses [Promoter]: 0, 0.75 PPM IN DIET FOR DURATION OF STUDY (STUDY DURATION: 50 WK), Route [Carcinogen]: SUBCUTANEOUS, Route [Promoter]: ORAL, Species: HAMSTER, Strain/Sex: SYRIAN/FEMALE",gallbladder: adenoma or adenocarcinoma
same,outcome,"Carcinogen: 3,2'-DIMETHYL-4-AMINOBIPHENYL, 13394-86-0, Doses [Carcinogen]: 100 MG/KG 1/WK FOR 20 WK, Doses [Promoter]: 0, 0.75 PPM IN DIET FOR DURATION OF STUDY (STUDY DURATION: 50 WK), Route [Carcinogen]: SUBCUTANEOUS, Route [Promoter]: ORAL, Species: HAMSTER, Strain/Sex: SYRIAN/MALE",gallbladder: adenoma or adenocarcinoma
same,outcome,"Carcinogen: 7,12-DIMETHYLBENZ[A]ANTHRACENE (DMBA) [57-97-6]AND N-BIS(2-HYROXYPROPYL)NITROSOSAMINE (DHPN) [53609-64-6], Doses [Carcinogen]: DMBA-SINGLE DOSE OF 50 MG/KG BW AT 7 WKS OF AGE, DHPN- 0.2% IN WATER WKS 6-14 OF AGE (STUDY DURATION: 27 WKS FOR MALES;, Doses [Carcinogen]: DMBA-SINGLE DOSE OF 50 MG/KG BW AT 7 WKS OF AGE, DHPN- 0.2% IN WATER WKS 6-14 OF AGE (STUDY DURATION: 27 WKS FOR MALES;, Doses [Promoter]: 0, 0.2, 1% IN DIET (STUDY DURATION: 27 AND 36 WKS FOR MALES AND FEMALES RESPECTIVELY), Doses [Promoter]: 0, 0.2, 1% IN DIET (STUDY DURATION: 27 AND 36 WKS FOR MALES AND FEMALES RESPECTIVELY), Route [Carcinogen]: ORAL (DMBA, GAVAGE; DHPN, DRINKING WATER), Route [Promoter]: MATERNAL MILK TO 3 WKS OF AGE, DIET FROM WKS 3 TO 6 OF AGE, Species: RAT, Strain/Sex: F344/FEMALE, MALE",negative
same,outcome,"Carcinogen: DIETHYLNITROSAMINE, 55-18-5, Doses [Carcinogen]: 100 MG/KG ONCE, Doses [Promoter]: 0, 10 PPM (0.5 MG/KG/D) 2 MO POST CARCINOGEN DOSE AND CONTINUING FOR 8 MO (STUDY DURATION: 12 MO), Route [Carcinogen]: INTRAPERITONEAL, Route [Promoter]: ORAL, Species: RAT, Strain/Sex: CD-1/FEMALE",liver: carcinoma/neoplastic nodules
same,outcome,"Carcinogen: DIETHYLNITROSAMINE, 55-18-5, Doses [Carcinogen]: 100 MG/KG ONCE, Doses [Promoter]: 0, 10 PPM (0.5 MG/KG/D) 2 MO POST CARCINOGEN DOSE AND CONTINUING FOR 8 MO (STUDY DURATION: 12 MO), Route [Carcinogen]: INTRAPERITONEAL, Route [Promoter]: ORAL, Species: RAT, Strain/Sex: CD-1/MALE",liver: carcinoma/neoplastic nodules
same,outcome,"Carcinogen: DIETHYLNITROSAMINE, 55-18-5, Doses [Carcinogen]: 200 MG/KG ONCE, Doses [Promoter]: 0, 160-210 UG/KG BW DAILY FROM RELEASE PELLETS FOR 30 WK BEGINNING 2 WK POST CARCINOGEN DOSE (STUDY DURATION: 30 WK), Route [Carcinogen]: INTRAPERITONEAL, Route [Promoter]: SUBCUTANEOUS, Species: RAT, Strain/Sex: WISTAR/FEMALE",liver: hepatocellular carcinoma
C[C@H](N)[C@H](O)c1cccc(O)c1,outcome,"Carcinogen: N-METHYL-N'-NITRO-N-NITROSOGUANADINE, 70-25-7, Doses [Carcinogen]: 25 UG/ML IN DRINKING WATER FOR 20 WK, Doses [Promoter]: 0, 5 MG/KG BW IN OLIVE OIL 1/2 D BEGINNING POST CARCINOGEN TREATMENT (STUDY DURATION: 52 WK), Route [Carcinogen]: ORAL, Route [Promoter]: SUBCUTANEOUS, Species: RAT, Strain/Sex: WISTAR/MALE",stomach: adenocarcinoma
